Measured values published in US4925651A, “Radiofluoro-tyrosine derivatives, the preparation and use thereof” (priority 1988, dated 1990).
Where two headings read alike, the source gives them in different places.

How the values were obtained:
[1] = Comparative uptake and incorporation of halogenated amino acids in mouse brain (40 min after i.v. injection); format: in vivo; conditions: mouse, in vivo, iv
Description: (§1) Typically, 0.75 to 1.5 MBq of L-2-[^18 F]-fluorotyrosine in 50 to 100 μl of isotonic solution were injected into the tail vein of NMRI mice.
(§2) After a defined incubation time, the animals were sacrificed and the brains were removed within 20 s and frozen in liquid nitrogen. Parts of the frontal cortex were removed (about 20 mg), weighed, homogenized in distilled water by ultrasonic treatment and, after 10 s, trichloroacetic acid (TCA) was added (final concentration >10%). The protein fraction precipitated by TCA was spun down and washed 2× with TCA solution, and the radioactivity in the combined supernatants and in the protein pellet was measured.
(§3) Results of comparative experiments on the incorporation of halogenated amino acids in mouse brain (40 min after i.v. injection) are compiled in the table which follows: […]

mouse brain [2] = assay: as above; format: in vivo
Description: as §1, §2, §3

[3] = system: cerebral protein synthesis; conditions: Coenen et al., cited from earlier work
mouse brain [4] = conditions: 40 min, footnote * Literature data; cited from earlier work
[5] = system: cerebral proteins (frontal cortex); assay: Fraction of radioactivity incorporated in cerebral proteins (TCA precipitation, frontal cortex) after tail vein injection; format: in vivo, NMRI mice
Description: as §1, §2

brain tissue = assay: HPLC investigation of TCA supernatant for free 2-[^18 F]-fluorotyrosine in brain tissue; format: in vivo, NMRI mice; conditions: for proportion of free (unmetabolized) 2-fluorotyrosine of the total tissue activity: brain tissue supernatant, HPLC; for recovery of the activity: free plus protein-incorporated
Description: as §1, §2
The supernatant was investigated by HPLC (for conditions, see Example 1) for the proportion of free 2-[^18 F]-fluorotyrosine. It emerged from this that the activity not incorporated in proteins was present almost entirely as unmetabolized 2-fluorotyrosine.

tissue = assay: Distribution of radioactivity and metabolite analysis in tissue up to two hours after injection; format: in vivo
Excerpt: (§4) Appropriate analysis in the striatum, the area of the brain which is highly permeated by dopaminergic nerve cells, has also ruled out the formation of catecholamines from 2-fluorotyrosine. Thus 2-[^18 F]-fluorotyrosine is an ideal tracer for the quantification of the rate of protein synthesis using a three-compartment model, which is relatively easy to handle mathematically and as is used for 2-[^18 F]-fluorodeoxyglucose in PET studies. The uptake of >1.6% of the injected dose per gram of tissue (see table below) is, moreover, adequate for PET investigations.

striatum = assay: Analysis for catecholamine formation in the striatum; format: in vivo
Excerpt: as §4

[6] = mouse brain, 40 min after i.v. injection, read-out: Uptake
[7] = mouse brain, 40 min after i.v. injection

## NC(Cc1ccc([75Br])cc1)C(=O)O (stereo not shown) [4 - ^75 BrPhe]
[1]; [6]
  tissue uptake at 40 min: 2 ± 0.4 %ID/g
Mouse brain [2]; [7]
  Incorporation: 17 ± 5 % of cerebral activity

## NC(Cc1ccc([18F])cc1)C(=O)O (stereo not shown) [4 - ^18 FPhe, p-[^18 F]-fluorophenylalanine]
[1]
  tissue uptake at 40 min: 1.5 ± 0.3 %ID/g
Mouse brain [2]; mouse, in vivo, iv
  Incorporation: 20 ± 2 % of cerebral activity
[3]
  incorporation rate in cerebral protein (in words): relatively low
[3]; animal model
  radioactivity in cerebral tissue assigned to an unidentified metabolite pool: about 20%

## NC(Cc1ccccc1[18F])C(=O)O (stereo not shown) [2 - ^18 FPhe]
[1]
  tissue uptake at 40 min: 2 ± 0.4 %ID/g
Mouse brain [2]; mouse, in vivo, iv
  Incorporation: 11 ± 2 % of cerebral activity

## NC(Cc1ccc(O)c([123I])c1)C(=O)O (stereo not shown) [3 - ^123 ITyr]
[1]
  tissue uptake at 40 min: 0.2 ± 0.005 %ID/g
Mouse brain [2]; mouse, in vivo, iv
  Incorporation: 13 ± 4 % of cerebral activity

## CC(C)C[C@H](N)C(=O)O [^14 C-Leu, leucine]
Mouse brain [4]
  Incorporation: 85 ± 4 % of cerebral activity

## N[C@@H](Cc1ccccc1)C(=O)O [^14 C-Phe, phenylalanine]
Mouse brain [2]; [7]
  Incorporation: 63 ± 2 % of cerebral activity

## C[C@](N)(Cc1ccc(O)c([123I])c1)C(=O)O [3 - ^123 I-α-MeTyr, 3-iodo-α-methyltyrosine]
[1]
  tissue uptake at 40 min: 0.8 ± 0.1 %ID/g
Mouse brain [2]; mouse, in vivo, iv
  Incorporation: 18 ± 1 % of cerebral activity

## NC(Cc1ccccc1[75Br])C(=O)O (stereo not shown) [2 - ^75 BrPhe]
[1]
  tissue uptake at 40 min: 2.4 ± 0.4 %ID/g
Mouse brain [2]; mouse, in vivo, iv
  Incorporation: 15 ± 1 % of cerebral activity

## CSCC[C@H](N)C(=O)O [^14 C-Met, methionine]
Mouse brain [2]; mouse, in vivo, iv
  Incorporation: 57 ± 3 % of cerebral activity

## N[C@@H](Cc1ccc(O)cc1[18F])C(=O)O [2 - ^18 FTyr, 2-[^18 F]-fluorotyrosine]
[1]; [6]
  tissue uptake at 40 min: 1.3 ± 0.005 %ID/g
[1]; refers to table, read-out: uptake of the injected dose per gram of tissue
  tissue uptake at 40 min: > 1.6 %ID/g
Mouse brain [2]; after 40 min
  cerebral incorporation rate (in words): comparable to that for the natural amino acids methionine and phenylalanine
Mouse brain [2]; [7]
  Incorporation: 62 ± 3 % of cerebral activity
[5]; 20 min after injection
  fraction incorporated in cerebral proteins: 44±3%
[5]; 60 min after injection
  fraction incorporated in cerebral proteins: 84%
[5]; >1 h after the injection
  incorporation in cerebral proteins (in words): almost quantitative
Brain tissue; 20 min
  proportion of free (unmetabolized) 2-fluorotyrosine of the total tissue activity: 51±3%
  recovery of the activity: 95±6%
Brain tissue; 60 min
  proportion of free (unmetabolized) 2-fluorotyrosine of the total tissue activity: 11±2%
  recovery of the activity: 95±4%
Brain tissue; HPLC of supernatant
  chemical form of the activity in brain tissue: present in brain tissue virtually only in two chemical forms
tissue; in vivo
  influence from redistributed labeled metabolites from the blood: can be ruled out
tissue; up to two hours after injection
  distribution of radioactivity in tissue: distributed only over the free fluorinated amino acid and the portion incorporated in protein
striatum
  formation of catecholamines: ruled out

## N[C@@H](Cc1ccc(O)c(F)c1)C(=O)O [3 - ^18 FTyr, 3-fluorotyrosine]
[1]; [6]
  tissue uptake at 40 min: 0.8 ± 0.005 %ID/g
Mouse brain [2]; [7]
  Incorporation: 26 ± 1 % of cerebral activity
